Test system: T1, CfRhoPDE1
T1 construct: full-length with N-terminal YFP tag kept; gene codon-optimised to Mus musculus, pGEMHE vector; Xenopus oocyte membrane fraction; all-trans retinal supplied
Test: cGMP hydrolysis by oocyte membranes, chemiluminescent immunoassay, Michaelis-Menten fit
Type: biochemical, Choanoeca flexa
Settings: dark; pH 7.3, 5 mM MgCl2, 100 mM NaCl, 5 mM DTT; 1-100 μM cGMP

- Km: ~15 µM
Structure (SMILES): Nc1nc2c(ncn2[C@@H]2O[C@@H]3COP(=O)(O)O[C@H]3[C@H]2O)c(=O)[nH]1 [cGMP]
